From patent publication US20090325992A1, “COMPOUND HAVING CYCLIC GROUP BOUND THERETO THROUGH SPIRO BINDING AND USE THEREOF” (ONO PHARMACEUTICAL CO., LTD., priority 2006, published 2009)

How the values were obtained:
[1] = target: T1, CXCR4 (human T cell strain CEM cells) (Homo sapiens, UniProt P61073); experiment: Inhibition of binding human SDF-1 to CEM cells (125I-SDF-1); details: 4° C., 60 minutes
T1 construct: a human T cell strain in which CXCR4 is known to be expressed; endogenous in cells; host or cells: CEM cells (human T cell strain)
T1 sequence (P61073 whole entry): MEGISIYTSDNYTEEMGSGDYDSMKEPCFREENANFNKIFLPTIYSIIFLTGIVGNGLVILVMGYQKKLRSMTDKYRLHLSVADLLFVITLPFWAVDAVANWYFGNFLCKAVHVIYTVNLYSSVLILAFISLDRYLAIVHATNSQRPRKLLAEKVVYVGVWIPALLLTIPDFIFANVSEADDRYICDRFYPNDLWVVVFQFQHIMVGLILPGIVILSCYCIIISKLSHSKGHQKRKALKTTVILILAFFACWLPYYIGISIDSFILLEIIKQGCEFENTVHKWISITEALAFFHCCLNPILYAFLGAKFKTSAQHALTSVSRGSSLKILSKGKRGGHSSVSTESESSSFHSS
Experimental: Specifically, as a system of screening a compound that inhibits the binding between SDF-1 and CXCR4, for example a system of measuring the binding between iodine-labeled SDF-1 and a human T cell strain in which CXCR4 is known to be expressed is operable.
Study for Inhibition of Binding Human SDF-1 to CEM Cells
To human T cell strain CEM cells in a binding buffer (containing HEPES and BSA), the test compound and ^125I-SDF-1 (PerkinElmer) were added and the mixture was incubated at 4° C. for 60 minutes. The reacted CEM cells were rapidly filtrated with a GF/B membrane filter plate (Packard) to adsorb. The plate was washed with phosphate buffered saline (hereinafter abbreviated to PBS) three times and then dried. Microscint+20 (Packard) was added thereto. An amount of the radioactivity bound to the CEM cells was measured using Top Count (Packard) and inhibition (%) of the test compound was calculated according to the following equation:
Inhibition={(Et−Ea)/(Et−Ec)}×100 [Equation 1]
Et: Amount of radioactivity when the test compound is not added,
Ec: Amount of radioactivity when non-radioactive SDF-1 (Pepro Tech) is added in an amount of 1,000 times as much as ^125I-SDF-1 as a test compound, and
Ea: Amount of radioactivity when the test compound is added.

[2] = tested on: CHL/IU (cell line derived from a Chinese hamster lung); experiment: Phospholipidosis detecting system using fluorescent labeling phospholipid analog (NBD-PE); format: cell-based; details: for Rate of increase of phospholipid accumulation (%) (compound dose: 200 μM): CHL/IU cells, compound dose 200 μM, about 48 hours, relative to NBD-PE control; for Determination (phospholipidosis, NBD-PE system): positive = 25% or more of the maximum increase rate of amiodarone
Experimental: Investigation with Phospholipidosis Detecting System using Fluorescent Labeling Phospholipidosis Analog under Severity Condition (1) Phospholipid Accumulation Measurement 100 μL/well as required (1 dose 2 wells) of cell suspension of CHL/IU (cell line derived from a Chinese hamster lung) (7×10^4 cells/mL) prepared by MEM (minimum essential medium) culture medium was added to a 96-well plate (96-well clear-bottom plate), and cultured for about 24 hours. After culture, the supernatant of the 96-well plate was removed, and the 100 μL/well compounds of each concentration dissolved and suspended in an MEM including 25 μmol/L nitrobenzoxadiazole dipalmitoyl phosphatidylethanolamine (NBD-PE) (hereinafter abbreviated as a NPD-PE medium) were added and treated for about 48 hours. The treatment concentrations of each compound were set to be 5, 50, 100 and 200 μM. The positive control substance was set to be amiodarone hydrochloride, and the treatment concentrations were set to be 1.25, 2.5, 5, 10 and 20 μM. In addition, 5-well untreated controls (only MEM) and 5-well NBD-PE controls (made by means of adding a 1/100 amount of DMSO to the NBD-PE culture medium) were set per compound, and cultured in the same manner. After finishing the culture, the cultures were washed twice with phosphate buffered saline (hereinafter abbreviated as PBS) (−) 100 μL/well, and the MEM (100 μL) was added to all of the treatment wells including two empty wells for WST-1 background controls and cultured for about a half hour. The fluorescence intensities of each well were measured by using a microplate reader (manufactured by Molecular Devices Inc., SPECTRA max M2; the excitation wavelength 485 nm/fluorescence wavelength 535 nm). (2) Analysis Using the average values of each dose×2 wells, a phospholipid increase rate (%) to the NBD-PE control was calculated by using the following calculating formula: Rate of increase of phospholipid accumulation (%)=100×{(test compound fluorescence intensity−non-treated control fluorescence intensity)/(NBD-PE control fluorescence intensity−non-treated control fluorescence intensity)} [Equation 2] (3) Cytotoxicity Assay 96-well plate measured in the phospholipid accumulation measurement was measured by means of Plate Reader (manufactured by Molecular Devices Inc., SPECTRA max M2) with the main wavelength of 450 nm and the correct wavelength of 690 nm to calculate a Pre value. An amount of 5 μL/well of Premix WS T-1 was added to each of the 96-hole plates by which Pre measurement was conducted. After culture for 2 to 4 hours, the 96-well plate was measured as well as the Pre measurement to calculate an Aft value. Then, the background control value was subtracted from the each measured value. A value which was calculated by subtracting the Pre value from the Aft value was used, then the cell growth rate (%) was calculated by using the following calculating formula: Cell growth rate (%)=100×[(test substance OD)/(NBD-PE control OD)] [Equation 3] (4) Determination A test dose that indicated value of 25% or more of the maximum phospholipid accumulation increase rate of amiodarone which was the positive control was determined as positive. In addition, the dose whose cell growth rate was equal to or less than 50% in the cytotoxicity assay was not used for determination of existence or nonexistence of a phospholipidosis inductive effect.

[3] = Artificial lipid membrane binding using Biacore S51 system; details: for Value of binding response (RU): DOPA liposome, 50 μM compound, PBS/5% DMSO pH 7.4, 37° C., corrected value; for Determination (artificial lipid membrane binding): positive = corrected binding response 150 or more
Experimental: Artificial Lipid Membrane Binding Account by using Biacore® S51 System
10 mM of 1,2-dioleoyl-sn-glycero-3-phosphate monosodium salt (hereinafter abbreviated as DOPA) chloroform solution was evaporated to dryness by means of an aspirator, and 0.6 mL of PBS/5% dimethyl sulfoxide (hereinafter abbreviated as DMSO) was added. The chloroform solution was fully suspended by means of a vortex mixer, and the freezing and thawing were repeated for 5 times. Liposome was created by means of a liposome preparation instrument (manufactured by Avestin Inc.) and two syringes, and was diluted to 0.5 mM with PBS/5% DMSO just prior to immobilization.
(2) Measurement Compound Preparation
38 μl of 1×PBS is added to 2 μl of a DMSO solution (10 mM), and further the 360 μl of 1×PBS/5% DMSO was added and the 50 μM of final concentration in PBS/5% DMSO was prepared and measured.
All of the following analysis used Biacore® S51 system and the measurement conditions were set by Biacore S51 Control Soft.
The measurement temperature was set to be 37° C., and PBS/5% DMSO (pH 7.4 or 6.0) was used as a buffer. Series S Sensor Chip L1 was used for a sensor chip. DOPA was immobilized in one of the measuring spots on the sensor surface and the central spot was used as a reference.
Immobilization of liposome was conducted at a flow rate of 10 μL/min for about 3 minutes and then the compound was added at a flow rate of 30 μL/min and the interaction was measured. The measurement conditions are as follows:
Assay buffer: PBS/5% DMSO (pH 7.4) Measurement temperature: 37° C. Sensor chip: Series S Sensor Chip L1 Flow rate: 10 μL/min at the time of the liposome immobilization; 30 μL/min at the time of the measurement of interaction with the compound Regeneration: 20 mM CHAPS (3-[(3-cholamidopropyl)dimethylammonio]-1-propanesulfonate), isopropylalcohol/aqueous 50 mM sodium hydroxide solution=40/60 (volume ratio) mixture solution (60 seconds)
The data processing was conducted by means of method of Abdiche et al., (Analytical biochemistry, 328, 233-243 (2004)) by using Biacore S51 Evaluation Soft.
Regarding the value of binding response (RU) in which the value of reference was subtracted, it was divided by a sample molecular weight after minute error of the DMSO concentration included in the sample solution was corrected. In addition, the value obtained here was divided by an amount of capture at the time of the cycle because the value obtained here was proportional to the amount of capture of the liposome and the value was multiplied by a million to be considered as a corrected value (Corrected value=1,000,000×RU (test compound)/molecular quantity (test compound) RU (liposome)).
The compound wherein a value of the binding response after the correction was 150 or more was determined as positive.

[4] = Measurement of maximum plasma level (Cmax) and stationary state distribution volume (Vss); details: male, Crl:CD(SD), rat, iv, 1 mg/kg
Experimental: Measurement of Maximum Plasma Level (Cmax) and Stationary State Distribution Volume (Vss)
A compound to be evaluated is weighed, dissolved in WellSolve (trade name; manufactured by Celeste Corporation) which is heated to 60° C. and adjusted to 20 mg/mL; thereafter, the test compound is diluted by 10 times with distilled water for injection, and further diluted by 2 times with saline solution, by which intravenously administered solution is eventually made. A compound to be evaluated is dissolved in WellSolve which is heated to 60° C. and adjusted to 50 mg/mL; thereafter, the compound to be evaluated is diluted with distilled water for injection and adjusted to 1 mg/mL. Five compounds (one set) were mixed in the same amount and adjusted to final concentration of 0.2 mg/mL per one compound, by which orally administered solution is eventually made. […] The administration is conducted under fasting conditions; water is freely ingested. In the case of intravenous administration, a 0.35 mL of blood sample is taken from cervical vein by using Heparinized Syringe at 5 minutes, 15 minutes, 30 minutes, 1 hour, 2 hours, 4 hours, 6 hours, 8 hours, and 24 hours after administration. […] The obtained blood is stored in ice, and after centrifugation at 12,000 rpm for 3 minutes, blood plasma is fractionated. In the case of intravenous administration, the blood plasma sample preserved at a temperature of −80° C. is dissolved; inner standard solution (100 μL) and acetonitrile (2 mL) are added to the blood plasma sample (100 μL) and stirred, and the sample is centrifuged at 2,500 rpm for 10 minutes.
After the supernatant centrifuged is evaporated to dryness by means of a centrifugal concentrator, 67% dimethyl sulfoxide solution (150 μL) is added to the residue and dissolves them again and 20 μL of the solution is analyzed by means of LC/MS/MS.
Measurement device: Waters 2795 (manufactured by Waters Corporation) Analytical column: Unison UK-C18, 3.0 μm particle size, 2.0 mm×30 mm (manufactured by Imtakt Corporation) Analytical column temperature: Room temperature Flow rate: 200 μL/min Moving bed: 5 mM IPC-PFAA-7 solution/acetonitrile (9/1→1/9)
Measurement device: Quatro micro API (manufactured by Micromass Communications Inc.) Scan type: MPM
The monitor ion which was suitable for each sample was selected.
A portion of the compound to be intravenously administered was subjected to the following treatment. The blood plasma sample preserved at a temperature of −80° C. is dissolved; inner standard solution (50 μL) and acetonitrile (1 mL) are added to the blood plasma sample (50 μL) and stirred, and the sample is centrifuged at 3,000 rpm for 10 minutes. After the supernatant is evaporated to dryness by means of a centrifugal concentrator, the residue was redissolved in water/acetonitrile (1/1) and the solution is analyzed by means of LC/MS/MS under the following conditions.
Measurement device: 1200 series system (manufactured by Agilent Technologies) Analytical column: Asahipak OOD-50 2D, 2×150 mm (manufactured by Showa Denko K.K.) Analytical column temperature: Room temperature Moving bed: 5 mM IPC—PFAA-7 solution/acetonitrile (gradient) Flow rate: 200 μL/min

Compound | IC50 [1] | Rate of increase of phospholipid accumulation (%) (compound dose: 200 μM) [2] | Determination (phospholipidosis, NBD-PE system) [2] | Value of binding response (RU) [3] | Determination (artificial lipid membrane binding) [3] | Vd [4]
COC(=O)Cc1ccc(CN(Cc2ncc[nH]2)Cc2nccn2CCCN2CCC3(CCN(CC(C)C)CC3)C2)cc1 [Example 21(4), Methyl (4-{[(1H-imidazol-2-ylmethyl)({1-[3-(8-isobutyl-2,8-diazaspiro[4.5]deca-2-yl)propyl]-1H-imidazol-2-yl}methyl)amino]methyl}phenyl)acetate] | 7.4 nM |  |  |  |  | 
CC(C)CN1CCC2(CC1)CCN(CCCn1ccnc1CN(Cc1ccc(CC(=O)O)cc1)Cc1ncc[nH]1)C2 [Example 22(4), (4-{[(1H-imidazol-2-ylmethyl)({1-[3-(8-isobutyl-2,8-diazaspiro[4.5]deca-2-yl)propyl]-1H-imidazol-2-yl}methyl)amino]methyl}phenyl)acetic acid] | 20.7 nM | 16% | Negative | 23.4 RU | Negative | 1.1 L/kg
CCC(CC)N1CCC2(CCN(CCCn3ccnc3CN(CCCC(=O)O)Cc3ncc[nH]3)C2)CC1 [Example 25(1), 4-{[(1-{3-[8-(1-ethylpropyl)-2,8-diazaspiro[4.5]deca-2-yl]propyl}-1H-imidazol-2-yl)methyl](1H-imidazol-2-ylmethyl)amino}butanoic acid] | 6.6 nM | 16% | Negative | 28.3 RU | Negative | 0.36 L/kg
CCOC(=O)COc1ccc(CN(Cc2ncc[nH]2)Cc2nccn2CCCN2CCC3(CCN(C4CCCCC4)CC3)C2)cc1 [Example 40(12), Ethyl (4-{[({1-[3-(8-cyclohexyl-2,8-diazaspiro[4.5]deca-2-yl)propyl]-1H-imidazol-2-yl}methyl)(1H-imidazol-2-ylmethyl)amino]methyl}phenoxy)acetate] | ≤ 3 nM |  |  |  |  | 
CCOC(=O)COc1cccc(CN(Cc2ncc[nH]2)Cc2nccn2CCCN2CCC3(CCN(C4CCCCC4)CC3)C2)c1 [Example 40(13), Ethyl (3-{[({1-[3-(8-cyclohexyl-2,8-diazaspiro[4.5]deca-2-yl)propyl]-1H-imidazol-2-yl}methyl)(1H-imidazol-2-ylmethyl)amino]methyl}phenoxy)acetate] | ≤ 3 nM |  |  |  |  | 
O=C(O)COc1ccc(CN(Cc2ncc[nH]2)Cc2nccn2CCCN2CCC3(CCN(C4CCCCC4)CC3)C2)cc1 [Example 41(6), (4-{[({1-[3-(8-cyclohexyl-2,8-diazaspiro[4.5]deca-2-yl)propyl]-1H-imidazol-2-yl}methyl)(1H-imidazol-2-ylmethyl)amino]methyl}phenoxy)acetic acid] | 4.4 nM | 16% | Negative | 72.9 RU | Negative | 
O=C(O)COc1cccc(CN(Cc2ncc[nH]2)Cc2nccn2CCCN2CCC3(CCN(C4CCCCC4)CC3)C2)c1 [Example 41(7), (3-{[({1-[3-(8-cyclohexyl-2,8-diazaspiro[4.5]deca-2-yl)propyl]-1H-imidazol-2-yl}methyl)(1H-imidazol-2-ylmethyl)amino]methyl}phenoxy)acetic acid] | 4.5 nM | 21% | Negative | 63.6 RU | Negative | 
CCOC(=O)COc1cccc(CN(Cc2ncc[nH]2)Cc2nccn2CCCN2CCC3(CCN(C(CC)CC)CC3)C2)c1 [Example 42(1), Ethyl [3-({[(1-{3-[8-(1-ethylpropyl)-2,8-diazaspiro[4.5]deca-2-yl]propyl}-1H-imidazol-2-yl)methyl] (1H-imidazol-2-ylmethyl)amino}methyl)phenoxy]acetate] | ≤ 3 nM |  |  |  |  | 
CCOC(=O)CCc1ccc(CN(Cc2ncc[nH]2)Cc2nccn2CCCN2CCC3(CCN(C(CC)CC)CC3)C2)s1 [Example 42(4), Ethyl 3-[5-({[(1-{3-[8-(1-ethylpropyl)-2,8-diazaspiro[4.5]deca-2-yl]propyl}-1H-imidazol-2-yl)methyl](1H-imidazol-2-ylmethyl)amino}methyl)-2-thienyl]propanoate] | 4.4 nM |  |  |  |  | 
CCOC(=O)COc1ccc(CN(Cc2ncc[nH]2)Cc2nccn2CCCN2CCC3(CCN(C(CC)CC)CC3)C2)cc1 [Example 42, Ethyl [4-({[(1-{3-[8-(1-ethylpropyl)-2,8-diazaspiro[4.5]deca-2-yl]propyl}-1H-imidazol-2-yl)methyl] (1H-imidazol-2-ylmethyl)amino}methyl)phenoxy]acetate] | 3 nM |  |  |  |  | 
CCC(CC)N1CCC2(CCN(CCCn3ccnc3CN(Cc3cccc(OCC(=O)O)c3)Cc3ncc[nH]3)C2)CC1 [Example 43(1), [3-({[(1-{3-[8-(1-ethylpropyl)-2,8-diazaspiro[4.5]deca-2-yl]propyl}-1H-imidazol-2-yl)methyl](1H-imidazol-2-ylmethyl)amino}methyl)phenoxy]acetic acid] | 6.3 nM | 14% | Negative | 41.2 RU | Negative | 0.42 L/kg
CCC(CC)N1CCC2(CCN(CCCn3ccnc3CN(Cc3cccc(SCC(=O)O)c3)Cc3ncc[nH]3)C2)CC1 [Example 43(2), {[3-({[(1-{3-[8-(1-ethylpropyl)-2,8-diazaspiro[4.5]deca-2-yl]propyl}-1H-imidazol-2-yl)methyl](1H-imidazol-2-ylmethyl)amino}methyl)phenyl]thio}acetic acid] | 9.3 nM |  |  |  |  | 
CCC(CC)N1CCC2(CCN(CCCn3ccnc3CN(Cc3ccc4cc(OCC(=O)O)ccc4c3)Cc3ncc[nH]3)C2)CC1 [Example 43(3), {[6-({[(1-{3-[8-(1-ethylpropyl)-2,8-diazaspiro[4.5]deca-2-yl]propyl}-1H-imidazol-2-yl)methyl](1H-imidazol-2-ylmethyl)amino}methyl)-2-naphthyl]oxy}acetic acid] | 13.6 nM |  |  |  |  | 
CCOC(=O)CCCn1ccnc1CN(C)Cc1nccn1CCCN1CCC2(CCN(CC(C)C)CC2)C1 [Example 47(4), Ethyl 4-(2-{[({1-[3-(8-isobutyl-2,8-diazaspiro[4.5]deca-2-yl)propyl]-1H-imidazol-2-yl}methyl)(methyl)amino]methyl}-1H-imidazol-1-yl)butanoate] | 4.3 nM |  |  |  |  | 
